Converted amounts (≈) assume the structure as drawn.
Tests used:
WI-38 = assay: Cytotoxicity against human WI38 cells assessed as cell viability by WST-1 assay; format: cell-based
Plasmodium falciparum = assay: Antiplasmodial activity against chloroquine-sensitive Plasmodium falciparum 3D7 assessed as growth inhibition by lactate dehydrogenase assay; format: functional, organism-based
[1] = Selectivity index, ratio of IC50 for human WI38 cells to IC50 for chloroquine-sensitive Plasmodium falciparum 3D7; format: toxicity, cell-based, WI-38; settings: read-out: Ratio IC50

For `C/C=C1/CN2CC[C@]34c5ccccc5N5C(=O)[C@H]6[C@@H](O)[C@H]7[C@@H]8N(c9ccccc9[C@@]89CCN8C/C(=C/C)[C@@H]7C[C@H]89)[C@@H]6[C@H]([C@H]53)[C@H]1C[C@H]24`, the IC50 (WI-38) was greater than 10 µg/mL, the IC50 (Plasmodium falciparum) was 1100 nM and the IC90 (Plasmodium falciparum) was 2.6 µg/mL (≈ 4.24 µM). The selectivity ratio [1] was greater than 14.

`C/C=C1/CN2[C@@H](C3=C[C@@H]4[C@@H]5N(C3=O)c3ccccc3[C@@]53CCN5C/C(=C/C)[C@@H]4C[C@H]53)C[C@@]34c5ccccc5N5C6=C7[C@H]8C[C@@H]9N(CC[C@@]9%10c9ccccc9N(C6=C([C@H]1C[C@H]23)[C@H]54)[C@@H]7%10)C/C8=C/C` showed an IC50 (WI-38) of less than 5 µg/mL, an IC50 (Plasmodium falciparum) of 600 nM and an IC90 (Plasmodium falciparum) of 1.6 µg/mL (≈ 1.85 µM). For the same molecule, the selectivity ratio [1] was less than 10.1.

`C[C@@H]1CC[C@H]2[C@@H](C)C(=O)O[C@@H]3O[C@@]4(C)CC[C@@H]1[C@]32OO4` [ARTEMISININ] showed an IC50 (Plasmodium falciparum) of 0.01 µg/mL.

With `CC[C@@]1(O)C(=O)OCc2c1cc1n(c2=O)Cc2cc3ccccc3nc2-1` [CAMPTOTHECIN] the IC50 (WI-38) was 0.03 µg/mL (≈ 0.0861 µM).
